Measurements as given in publication PMC10011747, “Targeting androgen receptor and the variants by an orally bioavailable Proteolysis Targeting Chimeras compound in castration resistant prostate cancer” (eBioMedicine, 2023).
Read-outs that look alike come from different tables or passages of the source.

Experiments:
Format in all cases: cell-based
[1] = biological target: T1, AR-V7 (Homo sapiens, UniProt P10275); assay: AR-V7 degradation by western blot (AR-V7 specific antibody); settings: for DC50: 24 h treatment; for Dmax at 20 µM: maximum degradation at 20 μM
T1 construct: endogenous in cells; host or cells: CWR22Rv1, VCaP
T1 sequence (P10275 1-644 isoform P10275-3): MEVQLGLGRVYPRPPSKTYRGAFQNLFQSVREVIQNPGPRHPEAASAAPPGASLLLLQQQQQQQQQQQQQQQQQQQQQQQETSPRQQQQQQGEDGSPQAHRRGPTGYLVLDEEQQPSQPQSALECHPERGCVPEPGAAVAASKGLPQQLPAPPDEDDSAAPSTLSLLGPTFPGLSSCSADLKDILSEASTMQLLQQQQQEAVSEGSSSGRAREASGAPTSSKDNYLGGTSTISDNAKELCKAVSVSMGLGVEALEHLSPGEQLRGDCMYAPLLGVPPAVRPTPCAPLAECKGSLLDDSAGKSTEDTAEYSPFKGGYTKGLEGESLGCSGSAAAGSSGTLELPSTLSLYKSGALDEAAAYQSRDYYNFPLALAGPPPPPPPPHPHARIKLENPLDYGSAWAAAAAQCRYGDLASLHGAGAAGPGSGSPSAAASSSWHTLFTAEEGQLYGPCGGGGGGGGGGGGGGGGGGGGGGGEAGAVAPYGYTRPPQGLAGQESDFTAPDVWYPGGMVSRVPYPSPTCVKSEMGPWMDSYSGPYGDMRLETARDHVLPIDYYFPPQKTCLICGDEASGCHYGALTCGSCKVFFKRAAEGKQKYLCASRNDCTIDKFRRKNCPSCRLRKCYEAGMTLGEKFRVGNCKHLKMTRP
Method: To obtain total lysates, cells were lysed in RIPA buffer (50 mM Tris–HCl pH 8.0, 150 mM NaCl, 1% NP-40, 0.5% Na-deoxycholate, 0.5% SDS plus protease inhibitors). The lysates were resolved by SDS-polyacrylamide gel electrophoresis, and the protein expression was analyzed by western blotting using primary antibodies against AR (Millipore Cat# 06-680, RRID:AB_310214), AR-V7 (RevMAb Biosciences Cat# 31-1109-00, RRID:AB_2716436), GAPDH (Cell Signaling Technology Cat# 2118, RRID:AB_561053) and Actin (Sigma–Aldrich Cat# A5441, RRID:AB_476744). pLenti4/TO/Flag-AR or pLenti4/TO/Flag-TC-AR plasmid was co-transfected with HA-ubiquitin plasmid into 293T cells. 24 h after transfection, the cells were treated with 10 μM of the PROTAC compounds for 16 h, followed by 4-h treatment of 5 μM MG132. The cells were lysed with lysis buffer (50 mM Tris–HCl pH7.5, 150 mM NaCl, 0. 5% Triton X-100, 10% glycerol, 1 mM EDTA plus protease inhibitors) containing 1 ng/mL of N-ethylmaleimide, followed by immunoprecipitation with anti-Flag M2 (Sigma–Aldrich Cat# F3165, RRID:AB_259529) antibody. The ubiquitinated AR was then detected by western blotting using anti-HA (Sigma–Aldrich Cat# H3663, RRID:AB_262051) antibody.
Fig. 1 PROTAC-based AR degraders ITRI-90, ITRI-125 and ITRI-126 reduce AR and AR-V7 proteins in prostate cancer cell lines. (a) Chemical structure of the PROTAC AR degraders. (b) Representative western blots of AR protein levels in LNCaP, CWR22Rv1 and VCaP cells treated with the PROTAC degraders for 24 h. AR was detected by N-terminal antibody which also detects C-terminal truncated AR-V(ΔLBD) in CWR22Rv1 cells. AR-V7 specific antibody was used for AR-V7 detection. 4%–12% gradient gel was used to separate different species of AR-V(ΔLBD) near 75 kDa in CWR22Rv1 cell lysates. DC50 indicating the concentration required to achieve 50% degradation, was calculated based on normalized full-length AR and AR-V7 band intensity. Dmax is the maximum degradation achieved at 20 μM compound treatment. TEXT PRINTED IN THE PICTURE: (a) ITRI-90: AR DC50 (μM) LNCaP: 2.12 ± 0.93; AR DC50 (μM) CWR22Rv1: 5.73 ± 2.28; AR DC50 (μM) VCaP: 8.67 ± 4.87; AR-V7 DC50 (μM) CWR22Rv1: 4.72 ± 2.52; AR-V7 DC50 (μM) VCaP: 0.29 ± 0.15; AR Dmax (%) LNCaP: 88; AR Dmax (%) CWR22Rv1: 98; AR Dmax (%) VCaP: 90; AR-V7 Dmax (%) CWR22Rv1: 100; AR-V7 Dmax (%) VCaP: 63 | (a) ITRI-125: AR DC50 (μM) LNCaP: 6.10 ± 4.43; AR DC50 (μM) CWR22Rv1: 6.64 ± 1.87; AR DC50 (μM) VCaP: 9.05 ± 3.75; AR-V7 DC50 (μM) CWR22Rv1: 1.89 ± 1.06; AR-V7 DC50 (μM) VCaP: 0.52 ± 0.37; AR Dmax (%) LNCaP: 71; AR Dmax (%) CWR22Rv1: 96; AR Dmax (%) VCaP: 85; AR-V7 Dmax (%) CWR22Rv1: 99; AR-V7 Dmax (%) VCaP: 67 | (a) ITRI-126: AR DC50 (μM) LNCaP: 3.41 ± 3.13; AR DC50 (μM) CWR22Rv1: 0.11 ± 0.02; AR DC50 (μM) VCaP: 0.851 ± 0.43; AR-V7 DC50 (μM) CWR22Rv1: 0.011 ± 0.003; AR-V7 DC50 (μM) VCaP: 0.43 ± 0.19; AR Dmax (%) LNCaP: 99; AR Dmax (%) CWR22Rv1: 74; AR Dmax (%) VCaP: 94; AR-V7 Dmax (%) CWR22Rv1: 91; AR-V7 Dmax (%) VCaP: 82

[2] = tested on: CWR22Rv1 cells; assay: alamarBlue cell viability, CWR22Rv1; settings: Homo sapiens, CWR22Rv1, 168 h; 7 days treatment, normal hormone condition
Method: (§1) Cells were seeded in triplicate in 96-well plates 1 day prior to drug treatment for all assays. For viability test and IC50 assessment, the alamarBlue™ Cell Viability Reagent (Thermo Fisher Scientific) was added to cells 7 days after PROTAC treatment, followed by fluorescence detection as the manufacturer instructed. The IC50 was calculated by dose-inhibition regression. For proliferation monitoring, 2, 4, 6 and 8 days after PROTAC treatment (day 0), viable cells were detected by MTT Cell Proliferation Kit I (Sigma–Aldrich) according to the manufacturer's instructions. Cellular caspase activity was measured by Caspase-Glo 3/7 Assay System (Promega) 1 or 2 days after the drug treatment.

[3] = tested on: LNCaP, CWR22Rv1 and VCaP cells; assay: alamarBlue cell viability, all three cell lines; settings: Homo sapiens, 168 h; 7 days treatment; read-out: IC50 cell viability, range in all three cell lines
Method: as §1

[4] = CWR22Rv1 cells, read-out: AR-V7 DC50 CWR22Rv1
[5] = CWR22Rv1 cells, read-out: AR-V7 Dmax CWR22Rv1
[6] = VCaP cells, read-out: AR-V7 DC50 VCaP
[7] = VCaP cells, read-out: AR-V7 Dmax VCaP

| SMILES | DC50 [1, 4] [µM] | Dmax at 20 µM [1, 5] [%] | DC50 [1, 6] [µM] | Dmax at 20 µM [1, 7] [%] | IC50 [2] [µM] | IC50 [3] [µM] |
| --- | --- | --- | --- | --- | --- | --- |
| Cc1ncsc1-c1ccc(CNC(=O)[C@@H]2C[C@H](O)CN2C(=O)[C@@H](NC(=O)COCCCCOc2ccc(C3CCN(C4=Nn5c(nnc5C(F)(F)F)CC4)CC3)cc2)C(C)(C)C)cc1 [ITRI-90, (2S,4S)-1-((S)-3,3-dimethyl-2-(2-(4-(4-(1-(3-(trifluoromethyl)-7,8-dihydro-[1,2,4]triazolo[4,3-b]pyridazin-6-yl)piperidin-4-yl)phenoxy)butoxy)acetamido)butanoyl)-4-hydroxy-N-(4-(4-methylthiazol-5-yl)benzyl)pyrrolidine-2-carboxamide] | 4.72 ± 2.52 | 100 | 0.29 ± 0.15 | 63 | 4.13 ± 1.93 | 3 to 6 |
| Cc1ncsc1-c1ccc(CNC(=O)[C@@H]2C[C@H](O)CN2C(=O)[C@@H](NC(=O)COCCCCCCOc2ccc(C3CCN(C4=Nn5c(nnc5C(F)(F)F)CC4)CC3)cc2)C(C)(C)C)cc1 [ITRI-125, (2S,4S)-1-((S)-3,3-dimethyl-2-(2-(6-(4-(1-(3-(trifluoromethyl)-7,8-dihydro-[1,2,4]triazolo[4,3-b]pyridazin-6-yl)piperidin-4-yl)phenoxy)hexyloxy)acetamido)butanoyl)-4-hydroxy-N-(4-(4-methylthiazol-5-yl)benzyl)pyrrolidine-2-carboxamide] | 1.89 ± 1.06 | 99 | 0.52 ± 0.37 | 67 | 6.92 ± 6.23 | 3 to 6 |
| O=C1CCC(N2Cc3c(NC(=O)COCCCCOc4ccc(C5CCN(C6=Nn7c(nnc7C(F)(F)F)CC6)CC5)cc4)cccc3C2=O)C(=O)N1 (stereo not drawn) [ITRI-126, N-(2-(2,6-dioxopiperidin-3-yl)-1-oxoisoindolin-4-yl)-2-(4-(4-(1-(3-(trifluoromethyl)-7,8-dihydro-[1,2,4]triazolo[4,3-b]pyridazin-6-yl)piperidin-4-yl)phenoxy)butoxy)acetamide] | 0.011 ± 0.003 | 91 | 0.43 ± 0.19 | 82 | 0.071 ± 0.017 | 0.07 to 0.4 |
